# Columns and labels:
# Assay in all cases: normalised response (% of control), CellTox Green; higher = less cell death (100 = DMSO, 0 = benzethonium chloride kill control)
# Details in all cases: incubation time: 72 h
# [1] = tested on: HCC1599
# Procedure, shortened: (§1)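 Breast cancer cell lines (20 µl suspension) were seeded into 384-well plates holding compound at 5 concentrations in 10-fold steps over a compound-specific 10,000-fold range, then incubated 72 h. CellTox Green fluorescence (485/520 nm) was read first, then CellTiter-Glo luminescence after 10 min at room temperature. Each plate was normalised to 0.1 % DMSO (100) and a positive kill control (0). Each value is the normalised signal at a single concentration of the series.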
# [2] = tested on: Hs578T
# Procedure, shortened: as §1
# [3] = tested on: BT-549
# Procedure, shortened: as §1
# [4] = tested on: MDA-MB-436
# Procedure, shortened: as §1
# [5] = tested on: CAL-51
# Procedure, shortened: as §1
# [6] = tested on: CAL-120
# Procedure, shortened: as §1
# [7] = tested on: MFM-223
# Procedure, shortened: as §1
# [8] = tested on: MCF-10A
# Procedure, shortened: as §1
# [9] = tested on: MDA-MB-231
# Procedure, shortened: as §1
# [10] = tested on: DU-4475
# Procedure, shortened: as §1
# [11] = tested on: MDA-MB-453
# Procedure, shortened: as §1
# [12] = tested on: BT-474
# Procedure, shortened: as §1
# [13] = tested on: MDA-MB-468
# Procedure, shortened: as §1
# [14] = tested on: CAL-148
# Procedure, shortened: as §1
# [15] = tested on: HCC1937
# Procedure, shortened: as §1
# [16] = tested on: CAL-85-1
# Procedure, shortened: as §1
# [17] = tested on: HCC1143
# Procedure, shortened: as §1
SMILES,normalised response [1],normalised response [2],normalised response [3],normalised response [4],normalised response [5],normalised response [6],normalised response [7],normalised response [8],normalised response [9],normalised response [10],normalised response [11],normalised response [12],normalised response [13],normalised response [14],normalised response [15],normalised response [16],normalised response [17]
COc1cc(Nc2c(C#N)cnc3cc(OCCCN4CCN(C)CC4)c(OC)cc23)c(Cl)cc1Cl [Bosutinib] (10000 nM),62%,72.5%,33.1%,25.9%,38.5%,65.6%,81.3%,-50.5%,-62.9%,86.5%,34.6%,19.3%,-35%,49%,32.9%,-81.2%,99.6%
CC1(C)CCC(c2ccc(Cl)cc2)=C(CN2CCN(c3ccc(C(=O)NS(=O)(=O)c4ccc(N[C@H](CCN5CCOCC5)CSc5ccccc5)c(S(=O)(=O)C(F)(F)F)c4)cc3)CC2)C1 [Navitoclax] (10000 nM),103%,101%,97.3%,64.8%,31.9%,13.6%,66.2%,60.6%,-60.4%,89.8%,86.5%,70.3%,24.9%,74.6%,69.4%,76.8%,113%
CNC(=O)c1ccccc1Sc1ccc2c(/C=C/c3ccccn3)n[nH]c2c1 [Axitinib] (10000 nM),118%,119%,90.9%,89%,40.2%,92.5%,97.7%,93.8%,96.8%,108%,111%,99.4%,156%,22.8%,91.2%,75.7%,103%
CC(C)(C)NC(=O)[C@H]1CC[C@H]2[C@@H]3CC[C@H]4NC(=O)C=C[C@]4(C)[C@H]3CC[C@]12C [Finasteride] (1000 nM),100%,107%,109%,102%,107%,99.4%,93.2%,91.2%,107%,103%,105%,99.4%,145%,104%,116%,107%,96.8%
C=CCn1c(=O)c2cnc(Nc3ccc(N4CCN(C)CC4)cc3)nc2n1-c1cccc(C(C)(C)O)n1 [MK1775] (1000 nM),67.4%,71.9%,74.9%,29.9%,17.8%,79.1%,68.5%,64.5%,-98.4%,87%,93.3%,68.6%,56.5%,-11.1%,103%,25.9%,103%
C=CCn1c(=O)c2cnc(Nc3ccc(N4CCN(C)CC4)cc3)nc2n1-c1cccc(C(C)(C)O)n1 [MK1775] (10000 nM),66.1%,33.3%,14.7%,67.1%,41.9%,53.2%,67.2%,-5.92%,-15.5%,85.3%,89.7%,44.8%,45%,22.7%,65.6%,4.99%,14.8%
Cc1cn(-c2cc(NC(=O)c3ccc(C)c(Nc4nccc(-c5cccnc5)n4)c3)cc(C(F)(F)F)c2)cn1 [Nilotinib] (10000 nM),105%,64.7%,80.7%,108%,92.6%,101%,104%,98.3%,84.3%,103%,102%,100%,117%,98.3%,93.1%,88.6%,104%
COc1ccc(S(=O)(=O)Nc2cccnc2Nc2ccc(O)cc2)cc1 [ABT-751] (10000 nM),74.5%,29.5%,77.8%,63.9%,32.5%,92%,35.7%,42.6%,46.2%,107%,97%,67.4%,112%,81.8%,108%,50.8%,121%
Nc1ccn([C@@H]2O[C@H](CO)[C@@H](O)C2(F)F)c(=O)n1 [Gemcitabine] (100 nM),87.5%,103%,95%,58.6%,32.1%,100%,101%,94.5%,101%,98.8%,110%,98.1%,28.4%,48.3%,89%,87.8%,111%
C/C(=C\c1csc(C)n1)[C@@H]1C[C@@H]2O[C@]2(C)CCC[C@H](C)[C@H](O)[C@@H](C)C(=O)C(C)(C)[C@@H](O)CC(=O)N1 [Ixabepilone] (1000 nM),104%,115%,62.7%,103%,33.8%,99.3%,105%,101%,55%,101%,101%,58.1%,87.1%,100%,92.4%,14.6%,120%
Nc1ccn([C@@H]2O[C@H](CO)[C@@H](O)C2(F)F)c(=O)n1 [Gemcitabine] (1000 nM),86.5%,123%,88.8%,89.8%,55.1%,96.3%,104%,90.5%,75.5%,96.9%,97.7%,104%,122%,61.1%,108%,73%,103%
COc1ccc(S(=O)(=O)Nc2cccnc2Nc2ccc(O)cc2)cc1 [ABT-751] (1000 nM),87.8%,78.8%,40.4%,57.2%,110%,87.2%,83.6%,81.3%,53.4%,93.9%,102%,86.1%,-16.6%,–,-57.9%,35.1%,98.9%
CO[C@@H]1[C@H](N(C)C(=O)c2ccccc2)C[C@H]2O[C@]1(C)n1c3ccccc3c3c4c(c5c6ccccc6n2c5c31)C(=O)NC4 [Midostaurin] (1000 nM),74%,64.2%,54%,77.3%,-37.7%,91.7%,78.8%,93.8%,61.2%,87.7%,107%,83.7%,-9.58%,67.4%,52.8%,92.1%,63.8%
Cc1cc(Nc2nc(N[C@@H](C)c3ncc(F)cn3)ncc2Cl)[nH]n1 [AZD1480] (100 nM),93.8%,96.6%,95.4%,101%,107%,98.6%,100%,85.5%,98.9%,97.6%,106%,71.6%,128%,99%,100%,99.9%,58.8%
O=C(CCCCCCC(=O)Nc1ccccc1)NO [Vorinostat] (10000 nM),81.9%,60.6%,74.8%,77.5%,-6.76%,36.3%,80.3%,98.4%,-55.1%,76%,82.7%,32.6%,25.7%,45.5%,84.3%,51.7%,42.1%
CC1(C)CCC(c2ccc(Cl)cc2)=C(CN2CCN(c3ccc(C(=O)NS(=O)(=O)c4ccc(N[C@H](CCN5CCOCC5)CSc5ccccc5)c(S(=O)(=O)C(F)(F)F)c4)cc3)CC2)C1 [Navitoclax] (1000 nM),89.8%,84.3%,95.6%,101%,60.1%,50.3%,95.8%,–,-19.3%,90.2%,99.8%,89.1%,84.7%,71.7%,92.8%,79.3%,92.9%
Cc1cn(-c2cc(NC(=O)c3ccc(C)c(Nc4nccc(-c5cccnc5)n4)c3)cc(C(F)(F)F)c2)cn1 [Nilotinib] (1000 nM),101%,104%,85.9%,82.2%,86.3%,97%,103%,107%,68.5%,101%,106%,88.8%,111%,106%,131%,101%,91.8%
CCNC(=O)CCC/C=C\C[C@@H]1[C@@H](/C=C/[C@@H](O)CCc2ccccc2)[C@H](O)C[C@@H]1O [Bimatoprost] (550 nM),97.1%,97.8%,73.3%,67.2%,106%,97.7%,103%,108%,88.8%,97.2%,99.3%,98.5%,69%,104%,129%,93.9%,105%
CO[C@@H]1[C@H](N(C)C(=O)c2ccccc2)C[C@H]2O[C@]1(C)n1c3ccccc3c3c4c(c5c6ccccc6n2c5c31)C(=O)NC4 [Midostaurin] (10000 nM),81.2%,21.1%,25.2%,83.6%,-24.3%,80.8%,93.1%,93.3%,60.6%,88.6%,91.6%,87.9%,0.55%,66.4%,91.9%,97.5%,91.4%
CC(=O)[C@]1(O)Cc2c(O)c3c(c(O)c2[C@@H](O[C@H]2C[C@H](N)[C@H](O)[C@H](C)O2)C1)C(=O)c1ccccc1C3=O [Idarubicin] (100 nM),101%,103%,98.7%,40.4%,70.2%,98.8%,99.2%,112%,114%,95.2%,108%,72.2%,49.4%,36%,110%,86.2%,102%
CC(C)C[C@H](NC(=O)[C@@H](COC(C)(C)C)NC(=O)[C@H](Cc1ccc(O)cc1)NC(=O)[C@H](CO)NC(=O)[C@H](Cc1c[nH]c2ccccc12)NC(=O)[C@H](Cc1cnc[nH]1)NC(=O)[C@@H]1CCC(=O)N1)C(=O)N[C@@H](CCCNC(=N)N)C(=O)N1CCC[C@H]1C(=O)NNC(N)=O [Goserelin] (1000 nM),98.4%,102%,124%,92.4%,105%,102%,83.2%,–,–,96.9%,107%,99.8%,158%,102%,83.8%,106%,112%

# Source: the supplement of paper PMC4862054
